Data reported in patent US8067452B2, “3-hydroxyisothiazole-4-carboxamidine derivatives as CHK2 inhibitors” (Valeant Pharmaceuticals International, priority 2007, dated 2011).

The compounds below were run against T1, Chk2 (Homo sapiens, UniProt O96017) (assay: In vitro kinase assay with recombinant Chk2 (MBP phosphorylation, [γ-33P]ATP)). Conditions: recombinant human GST-Chk2 10 nM, 25 μM MBP, 100 μM ATP, 30 min at 24° C.; read-out: The enzymatic IC50 values of compounds against Chk2.
T1 construct: GST; purchased Upstate (Lake Placid, N.Y.)
Assay type: biochemical
Description: In vitro kinase assays with recombinant Chk1 and Chk2. Recombinant human GST-Chk1 and GST-Chk2 proteins were purchased from Upstate (Lake Placid, N.Y.). Assay conditions were based on published protocols with minor modifications. Briefly, 10 nM of Chk1 or Chk2 was used to phosphorylate 25 μM myelin basic protein (MBP) (Invitrogen, Carlsbad, Calif.) This reaction took place in a buffer that contained 8 mM MOPS, pH 7.2, 10 mM β-glycerol phosphate, 1.5 mM EGTA, 0.4 mM EDTA, 0.4 mM sodium orthovanadate, 100 μM ATP, 1 μCi [γ-^33P] ATP, 15 mM MgCl2, 0.4 mM DTT, 0.006% Brij-35, 1% glycerol and 0.2 mg/ml BSA in a final volume of 25 μl. The reaction was incubated for 30 minutes at 24° C. and was terminated by adding 100 μl of 1% trichloroacetic acid. The quenched solution was incubated for 5 min at room temperature to allow the protein to precipitate and then subsequently transferred to a 96-well white GF/B filter plate (Perkin Elmer, Wellesley, Mass.) using a Perkin Elmer Filtermate Universal Harvester. The filter plate was washed ten times with water and once with ethanol before completely drying. 40 μL of Microscint™ (Perkin Elmer, Wellesley, Mass.) was added to each well and the radioactivity that was incorporated into MBP was counted using a Perkin Elmer TopCount. The compound was titrated and its IC50 values against both Chk1 and Chk2 were determined. The reported IC50 values are the average of at least two sets of data. To determine the competitive nature of the compound with ATP, the compound concentration was varied from 0-200 nM while ATP was varied from 50-500 μM in the assays to assess the ATP effect on inhibition. Prism 4.0 software (GraphPad, San Diego Calif.) was used for the IC50 determination and Lineweaver-Burk kinetic analysis.

T1 sequence (O96017 whole entry): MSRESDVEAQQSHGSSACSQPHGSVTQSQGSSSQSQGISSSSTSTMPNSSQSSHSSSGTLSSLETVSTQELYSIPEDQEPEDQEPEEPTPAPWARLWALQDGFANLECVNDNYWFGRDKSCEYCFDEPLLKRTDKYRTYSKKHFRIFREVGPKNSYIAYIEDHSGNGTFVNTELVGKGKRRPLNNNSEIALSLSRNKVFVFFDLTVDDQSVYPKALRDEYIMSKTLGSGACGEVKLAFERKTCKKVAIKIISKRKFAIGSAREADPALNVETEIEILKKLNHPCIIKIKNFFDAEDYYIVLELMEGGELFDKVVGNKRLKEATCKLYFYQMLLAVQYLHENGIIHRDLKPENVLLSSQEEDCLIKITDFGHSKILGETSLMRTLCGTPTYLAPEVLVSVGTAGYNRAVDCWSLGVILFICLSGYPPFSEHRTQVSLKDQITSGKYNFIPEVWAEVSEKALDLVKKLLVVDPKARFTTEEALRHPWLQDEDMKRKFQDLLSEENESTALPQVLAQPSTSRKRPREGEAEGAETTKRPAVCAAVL

Row | Structure (SMILES) | IC50 [nM]
1 | N=C(NCCO)c1c(O)nsc1Nc1ccc(Nc2ccccc2)cc1 [Entry 9] | 500 to 1000
2 | N=C(NCCO)c1c(O)nsc1Nc1ccc(Nc2ccc(Br)cc2)cc1 [Entry 3] | 1 to 500
3 | CC(C)NC(=N)c1c(O)nsc1Nc1ccc(Nc2ccc(Br)cc2)cc1 [Entry 1] | 1 to 500
4 | N=C(NCC(O)CO)c1c(O)nsc1Nc1ccc(Nc2ccccc2)cc1 (stereo not shown) [Entry 12] | 500 to 1000
5 | N=C(NCC(O)CO)c1c(O)nsc1Nc1ccc(Nc2ccc(Br)cc2)cc1 (stereo not shown) [Entry 6] | 1 to 500
6 | N=C(NCc1cccc2ccccc12)c1c(O)nsc1Nc1ccc(Nc2ccccc2)cc1 [Entry 13] | 1 to 500
7 | N=C(NCCCCO)c1c(O)nsc1Nc1ccc(Nc2ccc(Br)cc2)cc1 [Entry 5] | 1 to 500
8 | CC(C)NC(=N)c1c(O)nsc1Nc1ccc(Nc2ccccc2)cc1 [Entry 7] | 1 to 500
9 | N=C(NCCCCO)c1c(O)nsc1Nc1ccc(Nc2ccccc2)cc1 [Entry 11] | 1000 to 2000
10 | N=C(NCC1CCCCC1)c1c(O)nsc1Nc1ccc(Nc2ccc(Br)cc2)cc1 [Entry 4] | 1 to 500
11 | CC(CO)NC(=N)c1c(O)nsc1Nc1ccc(Nc2ccccc2)cc1 (stereo not shown) [Entry 8] | 1 to 500
12 | N=C(NCC1CCCCC1)c1c(O)nsc1Nc1ccc(Nc2ccccc2)cc1 [Entry 10] | 1000 to 2000
13 | CC(CO)NC(=N)c1c(O)nsc1Nc1ccc(Nc2ccc(Br)cc2)cc1 (stereo not shown) [Entry 2] | 1 to 500
